# Molecular target: T1, PTP1B (human, recombinant) (Homo sapiens, UniProt P18031)
# T1 construct: purchased ATGen Co., Ltd. (Gyeonggi-do, Korea)
# T1 sequence (P18031 1-435): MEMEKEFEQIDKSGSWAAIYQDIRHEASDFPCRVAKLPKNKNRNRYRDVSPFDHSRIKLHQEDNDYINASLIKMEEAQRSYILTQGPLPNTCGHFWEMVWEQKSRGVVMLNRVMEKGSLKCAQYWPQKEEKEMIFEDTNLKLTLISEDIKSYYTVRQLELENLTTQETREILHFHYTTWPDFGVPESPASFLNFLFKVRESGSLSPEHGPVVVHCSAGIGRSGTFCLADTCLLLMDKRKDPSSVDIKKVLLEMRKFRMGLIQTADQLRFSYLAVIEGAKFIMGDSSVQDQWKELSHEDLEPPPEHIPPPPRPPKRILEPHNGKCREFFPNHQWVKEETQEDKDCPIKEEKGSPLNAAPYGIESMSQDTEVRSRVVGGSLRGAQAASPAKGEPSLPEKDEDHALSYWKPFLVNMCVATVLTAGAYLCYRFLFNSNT
# Assay: PTP1B inhibitory activity assay (p-NPP hydrolysis)
# Format: biochemical
# Conditions: 1 mM p-NPP substrate, pH 6.0, 37.5 °C, 30 min; mean ± SD of triplicate experiments; read-out: PTP1B Inhibitory Effects (IC50 Values)
# Protocol: On the basis of these findings, we evaluated the inhibitory effects of the 16 isolated compounds on PTP1B activity. PTP1B enzyme (human, recombinant) was purchased from ATGen Co., Ltd. (Gyeonggi-do, Korea), and its activity was measured using p-nitrophenyl phosphate (p-NPP). The reaction mixture consisted of 50 mM Bis-Tris (pH 6.0), 2.0 mM EDTA, 5.0 mM dithiothreitol (DTT), PTP1B (0.04 μg), and 1.0 mM p-NPP, with or without test compounds. After incubation at 37.5 °C for 30 min, the reaction was stopped via the addition of 10 N NaOH. The production of p-nitrophenol (p-NP) was evaluated by measuring the absorbance at 405 nm. The non-enzymatic hydrolysis of 1.0 mM p-NPP was corrected by measuring the increase in absorbance at 405 nm in the absence of PTP1B enzyme.
# PTP1B (human, recombinant) was purchased from ATGen Co., Ltd. (Gyeonggi-do, Korea). The enzyme activity was measured in a reaction mixture containing 1 mM p-NPP in 50 mM Bis-Tris (pH 6.0), 2.0 mM EDTA, and 5.0 mM dithiothreitol (DTT). The reaction mixture was placed in a 37.5 °C for 30 min, followed by termination of the reaction with the addition of 10 N NaOH. The amount of p-NP produced was estimated by measuring the increase in absorbance at 405 nm. The non-enzymatic hydrolysis of 1.0 mM p-NPP was corrected by measuring the increase in absorbance at 405 nm obtained in the absence of PTP1B enzyme. Inhibition kinetics studies were performed in the presence or absence of compounds 1 and 13 with different concentrations of p-NPP. Data were fitted by nonlinear regression analysis according to a Michaelis-Menten kinetic model using GraphPad Prism 5.01.
row,IC50 [µM],SMILES
1,2 ± 0.4,"C=CC(C)(C)c1c2c(c3oc4cc(O)c(O)cc4c(=O)c3c1O)C=CC(C)(C)O2 [Compound 1, cudratricusxanthone N]"
2,3 ± 0.6,"C=CC(C)(C)c1c(OC)cc2oc3cc(O)c(O)cc3c(=O)c2c1O [Compound 2, 1,6,7-trihydroxy-2-(1,1-dimethyl-2-propenyl)-3-methoxyxanthone]"
3,3 ± 0.3,"C=CC(C)(C)c1c(O)cc(O)c2c(=O)c3cc(O)c(O)cc3oc12 [Compound 3, cudratricusxanthone L]"
4,4.3 ± 0.6,"C=CC(C)(C)c1c(O)cc(O)c2c(=O)c3c(CC=C(C)C)c(O)c(O)cc3oc12 [Compound 4, cudratricusxanthone A]"
5,4.6 ± 0.8,"C=CC(C)(C)c1c(O)cc2oc3c(CC=C(C)C)c(O)c(O)cc3c(=O)c2c1O [Compound 5, cudraxanthone L]"
6,3.8 ± 0.5,"C=CC(C)(C)c1c(O)c(CC=C(C)C)c2oc3cc(O)c(O)cc3c(=O)c2c1O [Compound 6, macluraxanthone B]"
7,1.9 ± 0.4,"C=CC(C)(C)c1c(OC)c(CC=C(C)C)c2oc3cc(O)c(O)cc3c(=O)c2c1O [Compound 7, cudracuspixanthone A]"
8,2.8 ± 0.6,CC(C)=CCc1c2c(c(O)c3c(=O)c4cc(O)c(O)cc4oc13)C(C)(C)C(C)O2 (stereo not drawn) [Compound 8]
9,3.5 ± 0.7,"CC(C)=CCc1c(O)c(O)cc2c(=O)c3c(O)c4c(cc3oc12)OC(C)C4(C)C (stereo not drawn) [Compound 9, cudraxanthone M]"
10,5.7 ± 1.5,"CC(C)=CCc1cc([C@@H]2CC(=O)c3c(cc(O)c(CC=C(C)C)c3O)O2)c(O)cc1O [Compound 13, cudraflavanone D]"
11,12.3 ± 2.2,"CC(C)=CCc1c(O)cc2c(c1O)C(=O)C[C@@H](c1cc3c(cc1O)OC(C)(C)C=C3)O2 [Compound 14, euchrestaflavanone C]"
12,9.4 ± 2.9,"CC(C)=CCc1c(O)cc2oc(-c3ccc(O)cc3O)c(CC=C(C)C)c(=O)c2c1O [Compound 15, cudraflavone C]"
13,13.6 ± 3.3,"CC(C)=CCc1c(-c2ccc(O)cc2O)oc2c(CC=C(C)C)c(O)cc(O)c2c1=O [Compound 16, kuwanon C]"

# Molecular target: T1, PTP1B (human, recombinant)
# Assay: Enzyme kinetic study of PTP1B inhibition (Lineweaver-Burk plots)
# Format: biochemical
# Conditions: Lineweaver-Burk plots: reduction in Vmax, no change in Km
# Protocol: To elucidate the characteristics of PTP1B inhibition by the prenylated xanthones and flavonoids, compounds 1 and 13 were selected for an enzyme kinetic study. The kinetic studies were conducted using different concentrations of compounds 1, 13, and p-NPP. The initial rate was determined on the basis of the rate of increase in absorbance at 405 nm. The Michaelis–Menten constant (Km) and maximal velocity (Vmax) of PTP1B were determined by Lineweaver–Burk Plot analysis for competitive inhibition and the intercept on the vertical axis for noncompetitive inhibition. […]
# Figure 2 Lineweaver-Burk plots for inhibition of PTP1B-catalyzed hydrolysis of p-NPP by compounds 1 (A) and 13 (B). Data are expressed as mean initial velocity for triplicate experiments (n = 3) at each substrate concentration.
# PTP1B (human, recombinant) was purchased from ATGen Co., Ltd. (Gyeonggi-do, Korea). The enzyme activity was measured in a reaction mixture containing 1 mM p-NPP in 50 mM Bis-Tris (pH 6.0), 2.0 mM EDTA, and 5.0 mM dithiothreitol (DTT). […] The amount of p-NP produced was estimated by measuring the increase in absorbance at 405 nm. The non-enzymatic hydrolysis of 1.0 mM p-NPP was corrected by measuring the increase in absorbance at 405 nm obtained in the absence of PTP1B enzyme. […]
row,Mode of PTP1B inhibition,SMILES
1,noncompetitive,"C=CC(C)(C)c1c2c(c3oc4cc(O)c(O)cc4c(=O)c3c1O)C=CC(C)(C)O2 [Compound 1, cudratricusxanthone N]"
2,noncompetitive,"CC(C)=CCc1cc([C@@H]2CC(=O)c3c(cc(O)c(CC=C(C)C)c3O)O2)c(O)cc1O [Compound 13, cudraflavanone D]"

# Source: PMC6272669, “Protein Tyrosine Phosphatase 1B Inhibitors from the Roots of Cudrania tricuspidata” (Molecules, 2015)
